Each structure is given as a SMILES string. Activity calls are given as the source filed them.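 The calls were made as follows: active = compounds giving half or more protection of infected cells from virus-caused growth loss, again on retest; inactive = the rest.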 *1 amine or outer side, *2 acyl side, *3 side chain or, on linkers, in order; H or OH if unused. Where a SMILES comes first, the peptide text is derived from it. [ ]: non-standard residue; d: D form. X7 = NC(N)=NCC(O)CC(N[*:1])C(=O)[*:2]; Orn = NCCC[CH](N)C(=O)O

The source of these data is PubChem BioAssay AID179 (DTP/NCI, 2004).

This assay relates to CEM cells HIV-1 protection, formazan growth assay. Description: NCI AIDS Antiviral Assay. The settings on record: for IC50: measured here: growth of uninfected CEM cells. In a few lines: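 Protection of CEM cells against HIV-1 was scored from cell growth (soluble formazan) across five concentrations, with parallel uninfected cells. Lack of protection may reflect toxicity.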

One may read the EC50 as the midpoint of the concentration-response curve. Usually IC50 stands for the midpoint of a concentration-inhibition curve. The low end stands for higher potency, the high end for lower potency. `COc1ccc(S(=O)Cc2ccc(C(=O)O)cc2[N+](=O)[O-])cc1` (stereo not given): the EC50 is more than 741 µM and the IC50 was 631 µM.

As for `N#CC(C(=O)Nc1ccccc1)C1=C(Cl)C(=O)c2ccccc2C1=O` (stereo not given), the EC50 is more than 251 µM and the concentration for half-maximal inhibition (IC50) worked out at 39.8 µM.

Regarding `CCCCCC1OC1(c1cc(Br)c(OC)c(C(=O)OC)c1)c1cc(Br)c(OC)c(C(=O)OC)c1` (stereo not given), the EC50 was more than 200 µM and the concentration for half-maximal inhibition (IC50) came out at 67.6 µM.

As for `COc1c2occc2c(N)c2ccc(=O)oc12`, the EC50 is more than 95.5 µM and the IC50 is more than 95.5 µM.

With `COC(=O)CC(NC(=O)OCc1ccccc1)C(C(C)=O)C(=O)OCc1ccccc1` (stereo not given), the EC50 is more than 75.9 µM and the IC50 was more than 75.9 µM.

For the compound `O=C1c2ccccc2S(=O)(=O)c2ccccc21`, the concentration for a half-maximal effect (EC50) is 129 µM and the IC50 was 501 µM.

`CCCCCCCC/C=C\CCCCCCCC(=O)NCCN(CCN)C(=O)CCCCCCC/C=C\CCCCCCCC`: the EC50 was more than 25.1 µM and the IC50 was more than 25.1 µM.

Regarding `CCCCNS(=O)(=O)c1ccc(-c2ccc3c(c2)-c2ccc(S(=O)(=O)NCCCC)cc2S3(=O)=O)cc1`, the EC50 is more than 12.9 µM and the IC50 was more than 12.9 µM.

Regarding `COc1ccccc1C=C(C#N)C#N`, the EC50 is more than 977 µM and the IC50 turned out to be 229 µM.

In the case of `COC(=O)c1ccccc1NC(=NC1CCCCCC1)NS(=O)(=O)c1ccc(C)cc1`, the EC50 was more than 200 µM and the IC50 was more than 200 µM.

In the case of `CCN=Cc1c(O)c(O)c(C(C)C)c2cc(C)c(-c3c(C)cc4c(C(C)C)c(O)c(O)c(C=NCC)c4c3O)c(O)c12`, the outcome was inactive.

As for `CCOC(=O)C(NNc1ccccc1)C(c1ccccc1)[P+](c1ccccc1)(c1ccccc1)c1ccccc1` (stereo not given), the EC50 was more than 200 µM and the IC50 came to 3.63 µM.

Turning to `CCOC(=O)c1ccc(N=C2Sc3nc4ccccc4n3C2=Nc2ccc(C(=O)OCC)cc2)cc1`, the EC50 is more than 50.1 µM and the 50% inhibitory concentration (IC50) was more than 50.1 µM.

Regarding `CN(C)c1ccccc1CC(c1c[nH]c2ccccc12)c1c[nH]c2ccccc12`, the EC50 was more than 19.1 µM and the IC50 is more than 19.1 µM.

As to `O=[As]c1ccc(C(=O)O)cc1` (stereo not given), the EC50 is more than 1170 µM and the IC50 came out at 245 µM.

`CCOc1cc2c(cc1Cc1ccc(OC)cc1)OCO2`: the EC50 was more than 91.2 µM and the half-inhibitory concentration (IC50) was 0.631 µM.

Regarding `CC(=O)NNc1nc(C)c(C(=O)NNC(=O)C(=O)Nc2c(Cl)cc([N+](=O)[O-])cc2Cl)s1`, the EC50 is more than 74.1 µM and the half-inhibitory concentration (IC50) was more than 74.1 µM.

For `COc1cc(C(C2=C(O)c3ccccc3C(=O)C2=O)C2=C(O)c3ccccc3C(=O)C2=O)cc(Br)c1O`, the EC50 was more than 200 µM and the IC50 is 32.4 µM.

Take `Cc1nnn[n-]1.N.N.N.N.N.[Cl-].[Co+3]`: the EC50 is more than 832 µM and the IC50 is more than 832 µM.

With `ClC/C=C/C[P+](c1ccccc1)(c1ccccc1)c1ccccc1`, the EC50 is more than 200 µM and the IC50 came out at 3.16 µM.

Consider `O=C1/C(=C\c2ccc([N+](=O)[O-])cc2)N(S(=O)(=O)c2ccccc2)c2ncccc21`, for which the EC50 is more than 200 µM and the IC50 came out at 13.5 µM.

On to `Cc1cccc2c1C(=O)/C(=C/c1ccccc1C(=O)O)C2`, for which the EC50 was more than 200 µM and the IC50 was 123 µM.

On to `O=C1CCCCCCCCCCC1CN(Cc1ccccc1)Cc1ccccc1` (stereo not given), for which the outcome was inactive.

`CCCCN(CCCC)CCNc1ccc(Cl)c2oc3cc(C)ccc3c(=O)c12`: the EC50 is more than 21.9 µM and the half-inhibitory concentration (IC50) is more than 21.9 µM.

Turning to `N#C/C(=C/N1C(=O)CC(=O)NC1=S)C(N)=O`, the EC50 is more than 200 µM and the IC50 was more than 200 µM.

For the compound `COc1ccc2c(c1O)-c1c(OC)c(OC)cc3c1C(C2)N(C)CC3` (stereo not given), the EC50 was more than 200 µM and the IC50 is more than 200 µM.

Turning to `N#Cc1ccc(S(=O)(=O)c2ccc(C#N)cc2)cc1`, the EC50 is more than 200 µM and the IC50 was more than 200 µM.

As for `CCCCCCCCCCCc1c(O)c(O)cc2nc3ccc(Sc4ccccc4)cc3nc12`, the EC50 was more than 15.1 µM and the IC50 is 4.57 µM.

Take `N#CC1(C#N)C(c2ccccc2)NC23CCCCC2C1(C#N)C(=O)N3` (stereo not given): the EC50 was more than 200 µM and the IC50 worked out at 81.3 µM.

Turning to `COc1c(Cl)cc(C(=CCCCC(=O)O)c2cc(Cl)c(OC)c(C(=O)O)c2)cc1C(=O)O`, the EC50 was more than 200 µM and the concentration for half-maximal inhibition (IC50) is more than 200 µM.

In the case of `CC(C)(C=O)CC(C#N)/C(=N\NC(N)=O)C(=O)Nc1ccccc1C(N)=O` (stereo not given), the EC50 is more than 676 µM and the IC50 was more than 676 µM.

On to `CC(=O)OCCCOCn1c(Cc2ccccc2)c(C)c(=O)[nH]c1=O`, for which the EC50 is 100 µM and the IC50 was more than 200 µM.

Turning to `CC(C)[C@](O)(C(=O)OCC1=CC[N+]2([O-])CC[C@@H](O)[C@@H]12)[C@H](C)O` (stereo not given in full), the EC50 is more than 398 µM and the IC50 was more than 398 µM.

In the case of `O=C(Cc1nc2ccccc2o1)C(=O)Nc1ccc(Cl)cc1Cl`, the EC50 was more than 7.76 µM and the concentration for half-maximal inhibition (IC50) is more than 7.76 µM.

As to `CC(=O)O[C@]12CCCCCCC1C1(O)C(O)CCC[C@H]12` (stereo not given in full), the EC50 is more than 200 µM and the IC50 was more than 200 µM.

Take `Cc1ncc([N+](=O)[O-])n1CCNC(=O)CCCCn1ccnc1[N+](=O)[O-]`: the EC50 was more than 200 µM and the IC50 was more than 200 µM.

As for `CCN(CC)CC(=O)NC1c2ccc(Cl)cc2Oc2c(C)cccc21` (stereo not given), the EC50 is more than 72.4 µM and the IC50 was 58.9 µM.

For `N#Cc1ccc(Oc2nc3ccccc3nc2-c2ccccc2)cc1`, the EC50 is more than 200 µM and the IC50 is more than 200 µM.

With `CC1(C)OC(=O)C(=C2CC(c3ccccc3)c3ccccc32)C(=O)O1` (stereo not given), the outcome was inactive.

With `CC(O)C(NC(=O)C(CCCN)NC(=O)C(CC(O)CN=C(N)N)NC(=O)C(N)CCCN=C(N)N)C(=O)NC(CCCN)C(=O)NC(CC(O)CN=C(N)N)C(=O)NC(Cc1ccc(O)cc1)C(=O)O` (stereo not given) (tested in a mixture with another compound) (H-R[X7][Orn]T[Orn][X7]Y-OH; configuration not given here), the EC50 was more than 47.9 µM and the IC50 stood at 39.8 µM.

As to `CCOC(=O)c1sc(SC)nc1NC(=O)c1ccc(OC)cc1`, the EC50 was more than 200 µM and the IC50 was more than 200 µM.

Consider `COc1nc2nc[nH]c2c(=O)[nH]1`, for which the result was inactive.

For `Cc1cc2c(C)nn(Cc3ccccc3Cl)c2c(C#N)c1C`, the EC50 was more than 23.4 µM and the IC50 is more than 23.4 µM.

Take `COC(=O)c1c2c(cc3c1CCC3)CCC2`: the EC50 was more than 200 µM and the half-inhibitory concentration (IC50) is more than 200 µM.

With `CC(C)S1=C2C(=O)CC(C)(C)CC2=Nc2ccccc21` (stereo not given), the EC50 was 61.7 µM and the IC50 is more than 200 µM.

With `CCC/C=C/C=C\C(=O)O[C@@H]1[C@@H](C)[C@]2(O)[C@@H]3C=C(C)C(=O)[C@H]3CC(COC(C)=O)=C[C@H]2[C@@H]2C(C)(C)[C@]12OC(C)=O`, the result was inactive.

Regarding `COc1ccc(Br)c2c1CC(C(=O)O)CC2` (stereo not given), the EC50 was more than 457 µM and the half-maximal inhibitory concentration (IC50) came to 234 µM.

Turning to `CC1CN=C(NS(=O)(=O)c2cc(C(=O)Nc3ccc(F)cc3)c(Cl)cc2S)NN1` (stereo not given), the EC50 was more than 200 µM and the IC50 is 24 µM.

As to `O=c1c2cc(S(=O)(=O)Nc3ccc(Cl)cc3Cl)ccc2ncn1NS(=O)(=O)c1cccc2ccccc12`, the EC50 is more than 200 µM and the half-maximal inhibitory concentration (IC50) stood at 33.1 µM.

Turning to `COc1ccc(-c2cc(-c3cc(C)cc(Cl)c3O)nc3[nH]c(=S)[nH]c(=S)c23)cc1`, the EC50 is more than 200 µM and the half-maximal inhibitory concentration (IC50) was determined as 4.17 µM.

`COc1ccc(N=NC(=O)NC(CC(C)C)C(=O)NC(Cc2ccccc2)C(=O)O)cc1` (stereo not given): the EC50 was more than 200 µM and the IC50 was determined as 3.09 µM.

On to `COc1ccc(O)c2c(=O)ccccc12`, for which the outcome was inactive.

For the compound `Cc1nc2c(c(=O)[nH]1)C1CCCCCCCN1C(=S)N2C` (stereo not given), the EC50 was more than 200 µM and the 50% inhibitory concentration (IC50) came out at 132 µM.

As to `COc1ccc(CCNC(=O)/C(=C\c2ccc3c(c2)OCO3)NC(=O)c2ccccc2)cc1OC`, the EC50 was more than 200 µM and the IC50 was more than 200 µM.

`CC(C)C1=CC2=CC=C3C(C)(C)CC(=O)OC3(C)CC2=C(O)C1=O` (stereo not given): the result was inactive.

As to `Cc1cccc(C)c1NC(=S)NNC(=O)NNC(=S)Nc1c(C)cccc1C`, the EC50 is more than 200 µM and the IC50 was more than 200 µM.

Consider `COc1ccc2c(c1)CCC/C2=N\NS(=O)(=O)c1c(C)cc(C)cc1C`, for which the EC50 is more than 200 µM and the half-maximal inhibitory concentration (IC50) worked out at 33.1 µM.

For the compound `Cc1c(Cl)c(=O)oc2cc(OCC(O)COC(C)C)ccc12` (stereo not given), the result was inactive.

For the compound `CN(C)CCNC(=O)c1cccc(C(=O)Nc2ccccc2)c1[N+](=O)[O-]`, the EC50 was more than 200 µM and the IC50 is more than 200 µM.

As to `Cc1ccc(N2C(=O)/C(=C3\Sc4c(nc(C)n(C)c4=O)N3c3ccccc3)SC2=S)cc1`, the EC50 is more than 3.02 µM and the IC50 was more than 3.02 µM.

With `N#CCOc1ccc(/C=C/C(=O)c2ccc(Cl)cc2)cc1`, the EC50 was more than 200 µM and the concentration for half-maximal inhibition (IC50) came to 17.4 µM.

Take `O=CN1CCN(C=S)CC1`: the EC50 is more than 1580 µM and the IC50 is more than 1580 µM.

In the case of `NC(=O)CSc1nc2ccccc2c(=O)n1N`, the EC50 is more than 200 µM and the half-inhibitory concentration (IC50) was more than 200 µM.

Regarding `COc1cc(Br)c(/C(=C\c2ccccc2N)C(=O)O)cc1OC`, the outcome was inactive.

`C=C(C)COc1cc(NC(=S)OC(C)C)ccc1Cl`: the EC50 is 0.813 µM and the IC50 turned out to be 4.79 µM.

Regarding `CN(C)Cc1cc(C(=O)/C=C/c2ccc(F)cc2)cc(CN(C)C)c1O`, the EC50 is more than 200 µM and the IC50 turned out to be 19.1 µM.

As to `Cc1ncc([N+](=O)[O-])n1CCO`, the EC50 is more than 200 µM and the half-maximal inhibitory concentration (IC50) was more than 200 µM.

With `CCn1c(O)c(C=Nc2ccccc2)s/c1=N/Nc1ncc(CC(=O)Nc2ccccc2C)s1`, the EC50 is more than 200 µM and the IC50 was found to be 170 µM.

`CCNc1nc2ccccc2nc1NCC`: the EC50 is more than 200 µM and the IC50 is more than 200 µM.

In the case of `Cc1ccc2c(c1)N=C(Nc1ccccc1)N=S2(C)=O` (stereo not given), the outcome was inactive.
